Measured values: PMC5387716, “Discovery of monocarbonyl curcumin-BTP hybrids as STAT3 inhibitors for drug-sensitive and drug-resistant breast cancer therapy” (Scientific Reports, 2017)

Experiments:
Format in all cases: cell-based, human
MCF-7/DOX cells [1] = test: Annexin V-APC/7-AAD flow cytometry of apoptosis, MCF-7/DOX; conditions: 4 μM, 24 h
Procedure: (§1) MCF-7, MCF-7/DOX or MCF-10A cells, at a density of 2.5 × 10^5 cells per well, were cultured in regular growth medium in 6-well plates for 24 h and treated in duplicate with different concentrations of 6b or curcumin for 24 h. The cells were harvested, washed and stained with 5 μL of Annexin V-APC and 5 μL of 7-AAD at room temperature for 15 min. Cells were then analyzed by flow cytometry (488 nm excitation and 600 nm emission filters) using a BD FACSCalibur flow cytometer (Becton & Dickinson Company, Franklin Lakes, NJ).

Bax gene = test: Quantitative real-time RT-PCR of Bax; conditions: MCF-7 and MCF-7/DOX cells, 24 h
Procedure: (§2) Levels of mRNA expression were analyzed with the RT-PCR assay, with total RNA isolated from MCF-7 or MCF-7/DOX cells using an EASYspin Plus tissue/cell RNA extraction kit (Aidlab Biotechnologies Co. Ltd). RNA was quantified by measuring absorption at 260 nm and 1 μg of RNA was reverse transcribed to cDNA using the Transcriptor First Strand cDNA Synthesis Kit (Roche Diagnostics, Basel, Switzerland). Thermal cycling conditions included 95 °C initial denaturation for 5 min, followed by 40 cycles of denaturation (10 s at 95 °C), annealing (15 s at 60 °C) and extension (15 s at 72 °C with a single fluorescence measurement), a melt curve program (60–95 °C with a 0.11 °C/s heat increase and continuous fluorescence measurement) and a cooling step to 40 °C. The Δ cycle threshold method was used for the calculation of relative differences in mRNA abundance with a LightCycler 480 (Roche Molecular Biochemicals, Mannheim, Germany). The data were normalized to the expression of GAPDH. The results were expressed as fold-changes. The RT-PCR primers that were used in this study are listed in the supporting information.

MCF-7 cells [2] = test: ROS detection by DCFH-DA flow cytometry, MCF-7; conditions: MCF-7, 4 μM, 24 h
Procedure: (§3) MCF-7 or MCF-7/DOX cells were seeded at a density of 3 × 10^5 cells per well of a 6-well plate and treated with various concentrations of 6b (0, 1, 2, 4 μM) or 4 μM curcumin for 24 h. DCFH-DA was dissolved in serum-free medium and diluted to a final concentration of 10 μM. After treatment with 6b, the growth media was replaced with serum-free medium containing the probe. After incubation for 20 min at 37 °C, cells were washed with serum-free medium twice, digested by trypsin and resuspended in pre-warmed PBS buffer. The samples were then subjected to a flow cytometry assay using a BD FACSCalibur flow cytometer (Becton & Dickinson Company, Franklin Lakes, NJ).

MCF-7/DOX cells [3] = test: MTT anti-proliferative assay, MCF-7/DOX; conditions: Homo sapiens, MCF7-DOX; MTT, 48 h; read-out: MCF-7/DOX IC50 ± SD
Procedure: (§4) All cell lines were purchased from Cell Bank of Shanghai Institute of Biochemistry and Cell Biology, Chinese Academy of Sciences (Shanghai, China). Human breast carcinoma cells (MCF-7 and MCF-7/DOX), breast epithelial cells (MCF-10A) and normal human liver cells (LO2) were maintained in RPMI-1640 medium. All cells were supplemented with 12% fetal bovine serum containing 50 μg/ml penicillin and 50 μg/ml streptomycin. Cells were grown to 80% confluency in a tissue culture flask at 37 °C in a humidified atmosphere containing 5% CO2, and then were trypsinized with 1 × Trypsin-Versene and split. The MCF-7/DOX cell line we used was established from its parental cell line MCF-7 cell by gradually increasing the concentration of DOX to which the cells were exposed in a stepwise manner over a period of 8 months. […] The cells were incubated in drug-free medium for at least 1 week before use.
(§5) Cells (MCF-7, MCF-7/DOX, MCF-10A, LO2) were seeded in 96-well plates at a density of 3,000–6,000 cells per well. The cells were incubated overnight (16 h) in a humidified 5% CO2 incubator at 37 °C. After media removal, different concentrations of test compounds were added in triplicate to the plates in 200 μL of fresh media and were incubated with the cells at 37 °C for 48 h. […] Cell viability was evaluated using 3-(4, 5-dimethylthiazolyl)-2,5-diphenyltetrazoliumbromide (MTT). The absorbance was read by an ELISA reader (SpectraMax Plus384, Molecular Devices, Sunnyvale, CA) at a test wavelength of 570 nm and a reference wavelength of 630 nm. Cell viability was calculated using the following formula: […]

MCF-7/DOX cells [4] = test: ROS detection by DCFH-DA flow cytometry, MCF-7/DOX; conditions: 4 μM, 24 h
Procedure: as §3

Cyclin D1 gene = test: Quantitative real-time RT-PCR of Cyclin D1; conditions: MCF-7 and MCF-7/DOX cells, 24 h
Procedure: as §2

Bcl-2 gene = test: Quantitative real-time RT-PCR of Bcl-2; conditions: MCF-7 and MCF-7/DOX cells, 24 h
Procedure: as §2

MCF-7/DOX cells [5] = test: Flow cytometry of the cell cycle, MCF-7/DOX; conditions: 4 μM, 24 h
Procedure: (§6) MCF-7 or MCF-7/DOX cells were plated in 6-well culture plates (1.5 × 10^5 cells per well). After incubation overnight, various concentrations of 6b or curcumin were added and cells were incubated for 24 h. Cells were harvested, washed with cold PBS, and incubated with pre-cooled 70% ethanol for a minimum of 4 h at 4 °C to fix them. The cells were then centrifuged, carefully aspirated from the supernatant, and re-suspended in a propidium iodide (final concentration, 40 μg/ml) and RNase A (final concentration, 100 μg/ml) solution at a final cell density of 0.5 × 10^6 cells/ml. The suspension was incubated at 37 °C for 30 min prior to analysis by flow cytometry.

MCF-7 cells [6] = test: Annexin V-APC/7-AAD flow cytometry of apoptosis, MCF-7; conditions: 4 μM, 24 h
Procedure: as §1

MCF-7 cells [7] = test: MTT anti-proliferative assay, MCF-7; conditions: Homo sapiens, MCF7, 48 h, read-out: MCF-7 IC50 ± SD
Procedure: as §4, §5

MCF-7 cells [8] = test: Flow cytometry of the cell cycle, MCF-7; conditions: MCF-7, 4 μM, 24 h
Procedure: as §6

IC50 (MCF-7/DOX cells [3]): 32.7 ± 4 µM | IC50 (MCF-7 cells [7]): 37.7 ± 8.2 µM
SMILES: COc1cc(/C=C/C(=O)CC(=O)/C=C/c2ccc(O)c(OC)c2)ccc1O [curcumin]
apoptosis rate (MCF-7/DOX cells [1]): small effect | Bax gene level (in words) (Bax gene): little effect | ROS generation (MCF-7 cells [2]): little effect | ROS generation (MCF-7/DOX cells [4]): little effect | Cyclin D1 gene level (in words) (Cyclin D1 gene): little effect | Bcl-2 gene level (in words) (Bcl-2 gene): little effect | effect on the cell cycle (MCF-7/DOX cells [5]): little effect | apoptosis rate (MCF-7 cells [6]): small effect | effect on the cell cycle (MCF-7 cells [8]): little effect
